Measured values as given in patent US20230042881A1, “MODULATORS OF INTEGRATED STRESS RESPONSE PATHWAY” (Praxis Biotech LLC, priority 2021, published 2023).
Like-named read-outs stand apart in the source and are kept apart here.

Tests used:
[1] = test system: Chinese hamster ovary (CHO) cells; test: Protein synthesis assay (puromycin incorporation, Western blot); type: cell-based; conditions: Cricetulus griseus, read-out: % Protein synthesis relative to untreated (1 μM test compound)
Method: Chinese hamster ovary (CHO) cells were maintained at 37° C. and 5% CO2 in Dulbecco's Modified Eagle's Media (DMEM) supplemented with 10% fetal bovine serum, 2 mM L-glutamine, 100 U/ml penicillin, and 100 μg/ml streptomycin. After reaching 80% of confluence, cells were detached and seeded on 6 well plates in complete media, allowed to recover overnight and treated for 2 hours with 1 μM of the test compound (to assess protein synthesis levels in unstressed condition), or for 2 hours with 300 nM Tg in the presence of 1 μM of the test compound (to assess the recovery of protein synthesis in a stressed condition). Cells with Tg alone were used as controls.
After the 2 hours treatments, media were replaced by adding 10 μg/ml puromycin (Sigma Aldrich #P8833) in complete media for 30 min. Media were removed and cells were lysed with SDS-PAGE lysis buffer. Lysates were transferred to 1.5 ml tubes and sonicated for 3 min and total protein amount were quantified using BCA Protein Assay Kit (Pierce). Equal amount of protein (30 μg) was loaded on SDS-PAGE gels.
A HRP-conjugated secondary antibody (Rockland) was employed to detect immune-reactive bands using enhanced chemiluminescence (ECL Western Blotting Substrate, Pierce). Quantification of protein bands was done by densitometry using ImageJ software.
The percentage levels were normalized to the media alone condition, which correspond to 100% protein synthesis. […]

ATF4 = ATF4 expression inhibition assay (ATF4 5′UTR luciferase reporter, thapsigargin-stressed); type: cell-based; conditions: Homo sapiens, HEK-293T, read-out: ATF4 inhibition
Method: The ATF4 reporter was prepared by fusing the human full length 5′UTR of ATF4 (NCBI Accession No. BC022088.2) upstream of the firefly luciferase coding sequence lacking the initiator methionine. The fused sequence was cloned into pLenti-EF1a-C-Myc-DDK-IRES-Puro cloning vector (Origen #PS100085) using standard methods.
HEK293T cells carrying the ATF4 luciferase reporter were plated on 96-well plates (Nunc) at 10,000 cells per well. Cells were treated two days after seeding with 100 nM thapsigargin (Tg) (Sigma-Aldrich #T9033) in the presence of different concentrations of selected compounds ranging from 0.1 nM to […]. Cells without treatment or cells treated with Tg alone were used as controls. Assay plates containing cells were incubated for 3 hours at 37° C.
Luciferase reactions were performed using Luciferase Assay System (Promega #E1501) as specified by the manufacturer. Luminescence was read with an integration time of 1 s and a gain of 110 using a Cytation-5 multi-mode microplate reader (BioTek).

[2] = unstressed CHO cells (without Tg), 2 hours, 1 μM test compound, media alone = 100%
[3] = HEK293T cells carrying ATF4 luciferase reporter, 100 nM thapsigargin (Tg), 3 hours at 37° C.

IC50 (ATF4; [3]) [nM]	SMILES	activity at 1 µM ([1]; CHO, 2 h) [%]	IC50 (ATF4; 3 h) [nM]	activity at 1 µM [1, 2] [%]
< 10	O=C(N[C@H]1CC[C@H](C(=O)Nc2ccc3cc(Cl)ccc3n2)CC1)c1cc2cc(Cl)ccc2o1 [Compound 4, trans-5-chloro-N-(4-((6-chloroquinolin-2-yl)carbamoyl)cyclohexyl)benzofuran-2-carboxamide]	–	–	204
100 to 1000	O=C(Nc1ccc2cc(Cl)ccc2n1)C1CCN(C[C@H](O)COc2ccc(Cl)c(F)c2)CC1 [Compound 9, (S)-1-(3-(4-chloro-3-fluorophenoxy)-2-hydroxypropyl)-N-(6-chloroquinolin-2-yl)piperidine-4-carboxamide]	–	–	156
10 to 100	O=C(Nc1ccc2cc(Cl)ccc2n1)[C@H]1CC[C@H](C(=O)N[C@H]2C[C@@H](OC(F)(F)F)C2)CC1 [Compound 31, trans-N1-(6-chloroquinolin-2-yl)-N4-(cis-3-(trifluoromethoxy)cyclobutyl)cyclohexane-1,4-dicarboxamide]	–	–	88.3
< 10	O=C(COc1ccc(OC(F)(F)F)cc1)N[C@H]1CC[C@H](C(=O)Nc2ccc3cc(Cl)ccc3n2)CC1 [Compound 36, trans-N-(6-chloroquinolin-2-yl)-4-(2-(4-(trifluoromethoxy)phenoxy)acetamido)cyclohexanecarboxamide]	–	–	160
< 10	O=C(N[C@H]1CC[C@H](C(=O)NCC2CNc3cc(Cl)ccc3O2)CC1)c1ccc2cc(Cl)ccc2n1 (stereo partly drawn) [Compound 71, trans-6-chloro-N-(4-(((6-chloro-3,4-dihydro-2H-benzo[b][1,4]oxazin-2-yl)methyl)carbamoyl)cyclohexyl)quinoline-2-carboxamide]	–	–	174
10 to 100	O=C(N[C@H]1CC[C@H](C(=O)NCC2CNc3cc(Cl)ccc3O2)CC1)C1CNc2cc(Cl)ccc2O1 (stereo partly drawn) [Compound 77, 6-chloro-N-(trans-4-(((6-chloro-3,4-dihydro-2H-benzo[b][1,4]oxazin-2-yl)methyl)carbamoyl)cyclohexyl)-3,4-dihydro-2H-benzo[b][1,4]oxazine-2-carboxamide]	–	–	76.6
100 to 1000	O=C(Nc1ccc2cc(Cl)ccc2n1)[C@H]1CC[C@H](NCCOc2ccc(Cl)c(F)c2)CC1 [Compound 11, trans-4-(2-(4-chloro-3-fluorophenoxy)ethylamino)-N-(6-chloroquinolin-2-yl)cyclohexane-1-carboxamide]	–	–	150
< 10	O=C(COc1ccc(Cl)c(F)c1)N[C@H]1CC[C@H](C(=O)NCC2CNc3cc(Cl)ccc3O2)CC1 (stereo partly drawn) [Compound 67, trans-N-((6-chloro-3,4-dihydro-2H-benzo[b][1,4]oxazin-2-yl)methyl)-4-(2-(4-chloro-3-fluorophenoxy)acetamido)cyclohexanecarboxamide]	–	–	109
10 to 100	O=C(COc1ccc(Cl)c(F)c1)N[C@H]1CC[C@H](C(=O)NCc2cc3cc(Cl)ccc3o2)CC1 [Compound 39, trans-4-(2-(4-chloro-3-fluorophenoxy)acetamido)-N-((5-chlorobenzofuran-2-yl)methyl)cyclohexanecarboxamide]	–	–	170
100 to 1000	O=C(NC[C@H]1CC[C@H](C(=O)Nc2ccc3cc(Cl)ccc3n2)CC1)c1ccc(C(F)(F)F)nc1 [Compound 37, trans-N-((4-((6-chloroquinolin-2-yl)carbamoyl)cyclohexyl)methyl)-6-(trifluoromethyl)nicotinamide]	–	–	–
100 to 1000	O=C(NC[C@H]1CC[C@H](C(=O)NCc2cc3cc(Cl)ccc3o2)CC1)c1ccc(C(F)(F)F)nc1 [Compound 51, N-((trans-4-(((5-chlorobenzofuran-2-yl)methyl)carbamoyl)cyclohexyl)methyl)-6-(trifluoromethyl)nicotinamide]	–	–	–
> 1000	O=C(NC[C@H]1CC[C@H](C(=O)Nc2ccc3cc(Cl)ccc3n2)CC1)c1cnc(C(F)F)cn1 [Compound 23, trans-N-((4-((6-chloroquinolin-2-yl)carbamoyl)cyclohexyl)methyl)-5-(difluoromethyl)pyrazine-2-carboxamide]	–	–	–

Continued, compound first:

SMILES	IC50 (ATF4; [3]) [nM]	activity at 1 µM ([1]; CHO, 2 h) [%]	IC50 (ATF4; 3 h) [nM]	activity at 1 µM [1, 2] [%]
O=C(COc1ccc(Cl)c(F)c1)NN1CCC(C(=O)Nc2nc3cc(Cl)ccc3o2)CC1 [Compound 97, 1-(2-(4-chloro-3-fluorophenoxy)acetamido)-N-(5-chlorobenzo[d]oxazol-2-yl)piperidine-4-carboxamide]	–	71.5	10 to 100	–
O=C(CO[C@H]1C[C@@H](OC(F)(F)F)C1)N[C@H]1CC[C@H](C(=O)Nc2ccc3cc(Cl)ccc3n2)CC1 [Compound 24, trans-N-(6-chloroquinolin-2-yl)-4-(2-(cis-3-(trifluoromethoxy)cyclobutoxy)acetamido)cyclohexanecarboxamide]	< 10	–	–	99.3
O=C(CO[C@H]1C[C@@H](OC(F)(F)F)C1)N[C@H]1CC[C@H](C(=O)NCc2cc3cc(Cl)ccc3o2)CC1 [Compound 59, trans-N-((5-chlorobenzofuran-2-yl)methyl)-4-(2-(cis-3-(trifluoromethoxy)cyclobutoxy)acetamido)cyclohexane-1-carboxamide]	100 to 1000	–	–	–
O=C(N[C@H]1CC[C@H](C(=O)NCc2cc3cc(Cl)ccc3o2)CC1)c1cc2cc(Cl)ccc2o1 [Compound 47, 5-chloro-N-(trans-4-(((5-chlorobenzofuran-2-yl)methyl)carbamoyl)cyclohexyl)benzofuran-2-carboxamide]	< 10	–	–	103
O=C(CO[C@H]1C[C@@H](OC(F)(F)F)C1)N[C@H]1CC[C@H](C(=O)Nc2nc3cc(Cl)ccc3o2)CC1 [Compound 101, trans-N-(5-chlorobenzo[d]oxazol-2-yl)-4-(2-(cis-3-(trifluoromethoxy)cyclobutoxy)acetamido)cyclohexanecarboxamide]	–	–	100 to 1000	–
O=C(CO[C@H]1C[C@@H](OC(F)(F)F)C1)NN1CCC(C(=O)Nc2nc3cc(Cl)ccc3s2)CC1 [Compound 121, N-(5-chlorobenzo[d]thiazol-2-yl)-1-(2-(cis-3-(trifluoromethoxy)cyclobutoxy)acetamido)piperidine-4-carboxamide]	100 to 1000	–	–	–
O=C(CO[C@H]1C[C@@H](OC(F)(F)F)C1)NN1CCC(C(=O)NCc2cc3cc(Cl)ccc3o2)CC1 [Compound 56, N-((5-chlorobenzofuran-2-yl)methyl)-1-(2-(cis-3-(trifluoromethoxy)cyclobutoxy)acetamido)piperidine-4-carboxamide]	100 to 1000	–	–	–
O=C(NC[C@H]1CC[C@H](C(=O)Nc2ccc3cc(Cl)ccc3n2)CC1)c1ccc(C(F)(F)F)cn1 [Compound 38, trans-N-((4-((6-chloroquinolin-2-yl)carbamoyl)cyclohexyl)methyl)-5-(trifluoromethyl)picolinamide]	100 to 1000	–	–	–
O=C(NC[C@H]1CC[C@H](C(=O)NCc2cc3cc(Cl)ccc3o2)CC1)c1ccc(C(F)(F)F)cn1 [Compound 52, N-((trans-4-(((5-chlorobenzofuran-2-yl)methyl)carbamoyl)cyclohexyl)methyl)-5-(trifluoromethyl)picolinamide]	100 to 1000	–	–	–
O=C(Nc1nc2cc(Cl)ccc2s1)[C@H]1CC[C@H](C(=O)N[C@H]2C[C@@H](OC(F)(F)F)C2)CC1 [Compound 123]	100 to 1000	–	–	–
O=C(CO[C@H]1C[C@@H](OC(F)(F)F)C1)N[C@H]1CC[C@H](C(=O)NCC2CNc3cc(Cl)ccc3O2)CC1 (stereo partly drawn) [Compound 79, trans-N-((6-chloro-3,4-dihydro-2H-benzo[b][1,4]oxazin-2-yl)methyl)-4-(2-(cis-3-(trifluoromethoxy)cyclobutoxy)acetamido)cyclohexane-1-carboxamide]	100 to 1000	–	–	–
O=C(C[C@H]1CC[C@H](NC(=O)COc2ccc(Cl)c(F)c2)CC1)Nc1ccc2cc(Cl)ccc2n1 [Compound 21, trans-2-(4-chloro-3-fluorophenoxy)-N-(4-(2-((6-chloroquinolin-2-yl)amino)-2-oxoethyl)cyclohexyl)acetamide]	–	–	100 to 1000	–
O=C(CO[C@H]1C[C@@H](OC(F)(F)F)C1)NN1CCC(C(=O)NCC2CNc3cc(Cl)ccc3O2)CC1 (stereo partly drawn) [Compound 80, N-((6-chloro-3,4-dihydro-2H-benzo[b][1,4]oxazin-2-yl)methyl)-1-(2-(cis-3-(trifluoromethoxy)cyclobutoxy)acetamido)piperidine-4-carboxamide]	100 to 1000	–	–	–
